Experimental data from ChEMBL document CHEMBL1154128, “Characterization of the microbial community and polyketide biosynthetic potential in the palmerolide-producing tunicate Synoicum adareanum” (2008).

System: UACC-62
Assay: Cytotoxicity against human UACC62 cells
Format: functional
Details: read-out: LC50 (the source's name)

CC(C)=CC(=O)N/C=C/C(C)=C/[C@@H](C)[C@H]1C/C(C)=C/C=C/CC[C@H](OC(N)=O)[C@@H](O)/C=C/[C@@H](O)CCC/C=C/C(=O)O1 [PALMEROLIDE A]
CC50: 18 nM
